Measurements published in patent publication EP0390673A1, “5-Acyl-benzoxazolinone derivatives, processes for their preparation and pharmaceutical compositions containing them” (ADIR ET COMPAGNIE, priority 1989, dated 1990).

System: souris
Assay: Analgesic activity, Siegmund test (phenyl-p-benzoquinone-induced stretching)
Type: in vivo
Conditions: Mus musculus; oral, 1 hour before i.p. phényl-p-benzoquinone 0,02 %; stretches counted between minutes 5 and 10; read-out: ED₅₀, dose entraînant une activité de 50%
Source text: L'activité sur la douleur a été recherchée chez la souris (23-25 g) selon un protocole dérivé de la technique décrite par SIEGMUND (SIEGMUND E.A., R.A. CADMUS & GOLU, J. Pharm. Exp. Ther. 119, 1874, 1954). Les souris, réparties par randomisation en lots de 12 animaux, ont reçu le traitement par voie orale (excipient pour les témoins) 1 heure avant l'injection intra-péritonéale d'une solution hydroalcoolique de phényl-p-benzoquinone (Sigma) à 0,02 %. Les étirements sont dénombrés entre la 5ème et 10ème minute après l'injection.
Le pourcentage d'activité obtenu a été évalué pour chaque dose (% de diminution du nombre d'étirements chez les traités par rapport aux témoins). Une ED₅₀, dose entraînant une activité de 50%, a été déterminée pour chaque produit.

With `O=C(c1ccccc1)c1ccc2oc(=O)[nH]c2c1` [Exemple 1, BENZOYL-5 BENZOXAZOLINONE] the ED50 was ~5 mg/kg.
